Legend:
Conditions in all cases: treatment: drug alone; 5 days
769-P [1] = assay: minimum viability across doses, drug alone, relative to DMSO (fraction); higher = less growth inhibition
Description: (§1)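 Primary HTS: 8 RCC cell lines treated with 8 doses (up to 10 uM) of each library drug alone for 5 days; viability read by CellTiter-Glo and normalised to DMSO. GI50 was fitted with XLfit (4-parameter), AUC is the area under the dose-response curve, and minimum viability is the lowest fraction of DMSO viability across doses.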

ACHN [2] = assay: as above
Description: as §1

786-O [3] = assay: as above
Description: as §1

CAKI-1 [4] = assay: as above
Description: as §1

TK-10 [5] = assay: as above
Description: as §1

SN12C [6] = assay: as above
Description: as §1

UO-31 [7] = assay: as above
Description: as §1

A498 [8] = assay: as above
Description: as §1

769-P [9] = assay: AUC of dose-response viability curve, drug alone (arbitrary (AUC of normalised viability)); higher = less growth inhibition
Description: as §1

ACHN [10] = assay: as above
Description: as §1

786-O [11] = assay: as above
Description: as §1

CAKI-1 [12] = assay: as above
Description: as §1

TK-10 [13] = assay: as above
Description: as §1

SN12C [14] = assay: as above
Description: as §1

UO-31 [15] = assay: as above
Description: as §1

A498 [16] = assay: as above
Description: as §1

769-P [17] = assay: GI50, drug alone; higher = less potent
Description: as §1

ACHN [18] = assay: GI50, drug alone; higher = less potent
Description: as §1

786-O [19] = assay: GI50, drug alone; higher = less potent
Description: as §1

CAKI-1 [20] = assay: GI50, drug alone; higher = less potent
Description: as §1

TK-10 [21] = assay: GI50, drug alone; higher = less potent
Description: as §1

SN12C [22] = assay: GI50, drug alone; higher = less potent
Description: as §1

UO-31 [23] = assay: GI50, drug alone; higher = less potent
Description: as §1

A498 [24] = assay: GI50, drug alone; higher = less potent
Description: as §1

Row | Compound | minimum viability across doses (769-P [1]) | minimum viability across doses (ACHN [2]) | minimum viability across doses (786-O [3]) | minimum viability across doses (CAKI-1 [4]) | minimum viability across doses (TK-10 [5]) | minimum viability across doses (SN12C [6]) | minimum viability across doses (UO-31 [7]) | minimum viability across doses (A498 [8]) | AUC of dose-response viability curve (769-P [9]) | AUC of dose-response viability curve (ACHN [10]) | AUC of dose-response viability curve (786-O [11]) | AUC of dose-response viability curve (CAKI-1 [12]) | AUC of dose-response viability curve (TK-10 [13]) | AUC of dose-response viability curve (SN12C [14]) | AUC of dose-response viability curve (UO-31 [15]) | AUC of dose-response viability curve (A498 [16]) | GI50, drug alone (769-P [17]) [µM] | GI50, drug alone (ACHN [18]) [µM] | GI50, drug alone (786-O [19]) [µM] | GI50, drug alone (CAKI-1 [20]) [µM] | GI50, drug alone (TK-10 [21]) [µM] | GI50, drug alone (SN12C [22]) [µM] | GI50, drug alone (UO-31 [23]) [µM] | GI50, drug alone (A498 [24]) [µM]
1 | COc1ccc(COc2cc3oc(=O)c4cc(C(C)O)ccc4c3cc2OC)cc1 (configuration not stated) [Palomid 529] | 0.854 | 0.893 | 0.251 | 0.668 | 0.633 | 0.844 | 1.2 | 1.12 | 3.39 | 3.5 | 2.56 | 3.57 | 2.69 | 3.3 | 5.25 | 4.44 | > 10 | > 10 | 5.75 | > 10 | > 10 | > 10 | > 10 | > 10
2 | Cc1ccc(Nc2nccc(N(C)c3ccc4c(C)n(C)nc4c3)n2)cc1S(N)(=O)=O.Cl [Pazopanib HCl] | 0.207 | 0.224 | 0.427 | 0.0579 | 0.661 | 0.193 | 0.63 | 0.514 | 3.18 | 3.21 | 2.85 | 3.09 | 3.14 | 3.1 | 4.39 | 3.57 | > 10 | 5.26 | < 0.003 | 6.83 | > 10 | 5.96 | > 10 | > 10
3 | CCOc1cc2ncc(C#N)c(Nc3ccc(F)c(Cl)c3)c2cc1NC(=O)/C=C/CN(C)C [Pelitinib (EKB-569)] | 0.0352 | 0.00498 | 0.00469 | 0.0302 | 0.01 | 0.0102 | 0.027 | 0.0185 | 2.02 | 1.41 | 2.08 | 1.87 | 1.75 | 2.38 | 3.24 | 2.96 | 0.357 | 0.0629 | 0.589 | 0.209 | 0.161 | 0.995 | 1.08 | 2.19
4 | Cl.N=C(N)NC(=N)NCCc1ccccc1 [Phenformin hydrochloride] | 0.841 | 0.682 | 0.116 | 0.821 | 0.333 | 0.0912 | 0.0295 | 0.514 | 3.29 | 3.53 | 2.31 | 3.22 | 2.95 | 2.87 | 3.11 | 3.42 | > 10 | > 10 | 1.5 | > 10 | 6.89 | 5.25 | 3.09 | > 10
5 | Oc1cc(O)cc(/C=C/c2ccc(O)c(O)c2)c1 [Piceatannol] | 0.849 | 0.67 | 0.383 | 0.33 | 0.685 | 0.712 | 0.908 | 1.05 | 2.35 | 3.28 | 2.54 | 3.58 | 3.2 | 3.18 | 5.06 | 4.25 | > 10 | > 10 | 2.37 | 7.74 | > 10 | > 10 | > 10 | > 10
6 | Br.Cc1ccc(C(=O)Cn2c3c(sc2=N)CCCC3)cc1 [Pifithrin-α] | 0.918 | 0.743 | 0.385 | 0.871 | 0.636 | 0.76 | 0.864 | 0.946 | 3.5 | 3.14 | 1.95 | 3.26 | 2.84 | 3.09 | 3.69 | 4.11 | > 10 | > 10 | > 10 | > 10 | > 10 | > 10 | > 10 | > 10
7 | Nc1cccc2c1C(=O)N(C1CCC(=O)NC1=O)C2=O (configuration not stated) [Pomalidomide] | 0.887 | 0.85 | 0.424 | 0.924 | 0.818 | 0.884 | 1.01 | 0.732 | 3.35 | 3.14 | 2 | 3.49 | 3.12 | 3.38 | 3.85 | 3.01 | > 10 | > 10 | 0.00888 | > 10 | > 10 | > 10 | > 10 | > 10
8 | O=c1c(O)c(-c2ccc(O)c(O)c2)oc2cc(O)cc(O)c12 [Quercetin (Sophoretin)] | 0.784 | 0.899 | 0.53 | 0.861 | 0.736 | 0.821 | 0.807 | 0.923 | 3.3 | 3.48 | 2.36 | 3.2 | 3.01 | 3.13 | 3.57 | 3.6 | > 10 | > 10 | > 10 | > 10 | > 10 | > 10 | > 10 | > 10
9 | CC(C)(C)c1cc(NC(=O)Nc2ccc(-c3cn4c(n3)sc3cc(OCCN5CCOCC5)ccc34)cc2)no1 [Quizartinib (AC220)] | 0.234 | 0.381 | 0.129 | 0.408 | 0.612 | 0.819 | 1.16 | 1.07 | 2.98 | 2.72 | 2.76 | 2.38 | 2.84 | 3.25 | 5.25 | 4.53 | 4.3 | 3.48 | 1.36 | 2.62 | > 10 | > 10 | > 10 | > 10
10 | COc1cc(Nc2ncc(F)c(Nc3ccc4c(n3)NC(=O)C(C)(C)O4)n2)cc(OC)c1OC [R406(free base)] | 0.474 | 0.306 | 0.128 | 0.142 | 0.396 | 0.359 | 0.0454 | 1 | 3.13 | 2.35 | 2.21 | 2.61 | 2.44 | 2.79 | 4.5 | 4.42 | 9.62 | 1.42 | 1.59 | 1.26 | 4.07 | 3.89 | 8.51 | > 10
11 | COc1cc(Nc2ncc(F)c(Nc3ccc4c(n3)NC(=O)C(C)(C)O4)n2)cc(OC)c1OC.O=S(=O)(O)c1ccccc1 [R406] | 0.536 | 0.451 | 0.221 | 0.183 | 0.479 | 0.336 | 0.164 | 0.882 | 3.1 | 2.94 | 2.46 | 2.59 | 2.85 | 3.11 | 2.59 | 3.57 | > 10 | 5.85 | 2.01 | 1.33 | 9.02 | 4.6 | 8.77 | > 10
12 | COc1cc(Nc2ncc(F)c(Nc3ccc4c(n3)N(COP(=O)(O)O)C(=O)C(C)(C)O4)n2)cc(OC)c1OC [R788 (Fostamatinib)] | 0.145 | 0.0584 | 0.158 | 0.0246 | 0.308 | 0.287 | 0.00902 | 1.06 | 2.94 | 2.73 | 2.54 | 2.49 | 2.64 | 2.79 | 4.78 | 4.24 | 3.5 | 1.22 | 1.16 | 0.913 | 3.3 | 2.98 | 6.02 | > 10
13 | FC(F)(F)c1ccc(Nc2nc3cc(Oc4ccnc(-c5ncc(C(F)(F)F)[nH]5)c4)ccc3[nH]2)cc1 [Raf265 derivative] | 0.473 | 0.142 | 0.141 | 0.298 | 0.534 | 0.651 | 0.0014 | 1.04 | 3.24 | 3.47 | 2.69 | 3.62 | 3.18 | 3.32 | 3.5 | 4.16 | 9.97 | 8.48 | 5.37 | 9.39 | > 10 | > 10 | 1.05 | > 10
14 | CO[C@H]1C[C@@H]2CC[C@@H](C)[C@@](O)(O2)C(=O)C(=O)N2CCCC[C@H]2C(=O)O[C@H]([C@H](C)C[C@@H]2CC[C@@H](O)[C@H](OC)C2)CC(=O)[C@H](C)/C=C(\C)[C@@H](O)[C@@H](OC)C(=O)[C@H](C)C[C@H](C)/C=C/C=C/C=C/1C [Rapamycin (Sirolimus)] | 0.504 | 0.38 | 0.211 | 0.377 | 0.491 | 0.557 | 0.0503 | 0.547 | 2.08 | 1.77 | 0.986 | 1.91 | 2.04 | 2.11 | 0.524 | 2.44 | > 10 | 0.171 | < 0.003 | 0.358 | > 10 | 1.76 | < 0.003 | > 10
15 | CNC(=O)c1cc(Oc2ccc(NC(=O)Nc3ccc(Cl)c(C(F)(F)F)c3)c(F)c2)ccn1 [Regorafenib (BAY 73-4506)] | 0.894 | 0.39 | 0.598 | 0.363 | 0.536 | 0.387 | 0.186 | 0.883 | 3.39 | 3.38 | 2.63 | 3.16 | 3.02 | 3.16 | 3.11 | 3.76 | > 10 | 7.85 | > 10 | 7.35 | > 10 | 8.24 | 2.55 | > 10
16 | CC[C@H](CO)Nc1nc(NCc2ccccc2)c2ncn(C(C)C)c2n1 [Roscovitine (Seliciclib, CYC202)] | 0.848 | 0.36 | 0.208 | 0.763 | 0.655 | 0.769 | 0.544 | 1.03 | 3.28 | 3.25 | 2.76 | 3.27 | 3.17 | 3.57 | 3.47 | 3.91 | > 10 | 7.52 | 4.97 | > 10 | > 10 | > 10 | > 10 | > 10
17 | Cn1cc(-c2ccc3nnc(Sc4ccc5ncccc5c4)n3n2)cn1 [SGX-523] | 0.776 | 0.725 | 0.56 | 0.806 | 0.775 | 0.746 | 1.01 | 0.855 | 3.22 | 3.23 | 2.77 | 3.18 | 3.06 | 3.21 | 3.83 | 3.75 | > 10 | > 10 | > 10 | > 10 | > 10 | > 10 | > 10 | > 10
18 | CS(=O)(=O)O.O=C(Nc1cccc(Cl)c1)Nc1ncc(CCNc2ncnc3ccsc23)s1 [SNS-314] | 0.343 | 0.17 | 0.159 | 0.172 | 0.536 | 0.245 | 0.891 | 0.637 | 2.2 | 1.77 | 1.76 | 1.36 | 2.73 | 2.54 | 4.36 | 4.02 | 0.506 | 0.168 | 0.0504 | 0.0361 | > 10 | 1.75 | > 10 | > 10

Reference: the supplement of paper PMC8149375
